Results from PubChem BioAssay (NCI).
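1) Cells in 96-well plates. 2) Compound, 48 h, 5 concentrations. 3) Linear interpolation between surrounding doses. 4) Unreached endpoint = highest concentration. GI50 marks 50% less growth. At the TGI there is no net growth.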

Columns and labels:
Assay in all cases: inhibition of tumour cell growth, NCI panel, 48 h
HS 578T breast = tested on: HS 578T breast
OVCAR-3 ovarian = tested on: OVCAR-3 ovarian
SNB-19 CNS = tested on: SNB-19 CNS
HCC-2998 colon = tested on: HCC-2998 colon
T-47D breast = tested on: T-47D breast
SF-539 CNS = tested on: SF-539 CNS
UACC-62 melanoma = tested on: UACC-62 melanoma
MDA-MB-435 = tested on: MDA-MB-435
KM12 colon = tested on: KM12 colon
HOP-92 NSCLC = tested on: HOP-92 NSCLC
BT-549 breast = tested on: BT-549 breast
RPMI-8226 leukemia = tested on: RPMI-8226 leukemia
OVCAR-5 ovarian = tested on: OVCAR-5 ovarian
ACHN renal = tested on: ACHN renal
NCI-H226 lung = tested on: NCI-H226 lung
A498 renal = tested on: A498 renal
OVCAR-8 ovarian = tested on: OVCAR-8 ovarian
NCI/ADR-RES ovarian = tested on: NCI/ADR-RES ovarian
MDA-MB-231 breast = tested on: MDA-MB-231 breast
SR leukemia = tested on: SR leukemia
HOP-62 NSCLC = tested on: HOP-62 NSCLC
UO-31 renal = tested on: UO-31 renal
HCT-15 colon = tested on: HCT-15 colon
U251 CNS = tested on: U251 CNS
OVCAR-4 ovarian = tested on: OVCAR-4 ovarian
RXF 393 renal = tested on: RXF 393 renal
K-562 leukemia = tested on: K-562 leukemia
PC-3 prostate = tested on: PC-3 prostate
CCRF-CEM leukemia = tested on: CCRF-CEM leukemia
NCI-H522 lung = tested on: NCI-H522 lung
A549 NSCLC = tested on: A549 NSCLC
SF-268 CNS = tested on: SF-268 CNS
TK-10 renal = tested on: TK-10 renal
CAKI-1 renal = tested on: CAKI-1 renal
SK-MEL-5 melanoma = tested on: SK-MEL-5 melanoma
MOLT-4 leukemia = tested on: MOLT-4 leukemia
EKVX NSCLC = tested on: EKVX NSCLC
COLO 205 colon = tested on: COLO 205 colon
HL-60(TB) leukemia = tested on: HL-60(TB) leukemia
SK-OV-3 ovarian = tested on: SK-OV-3 ovarian
HCT-116 colon = tested on: HCT-116 colon
LOX IMVI melanoma = tested on: LOX IMVI melanoma
786-0 renal = tested on: 786-0 renal
SN12C renal = tested on: SN12C renal
NCI-H23 lung = tested on: NCI-H23 lung
NCI-H460 lung = tested on: NCI-H460 lung
M14 melanoma = tested on: M14 melanoma
SW-620 colon = tested on: SW-620 colon
SK-MEL-2 melanoma = tested on: SK-MEL-2 melanoma
UACC-257 melanoma = tested on: UACC-257 melanoma
HT29 colon = tested on: HT29 colon
SK-MEL-28 melanoma = tested on: SK-MEL-28 melanoma
IGROV1 ovarian = tested on: IGROV1 ovarian
MCF7 breast = tested on: MCF7 breast
MALME-3M melanoma = tested on: MALME-3M melanoma
DU-145 prostate = tested on: DU-145 prostate
SNB-75 CNS = tested on: SNB-75 CNS
SF-295 CNS = tested on: SF-295 CNS

Question: Which GI50 (HS 578T breast) does the source give for `COc1ccc(Cl)cc1NC(=O)C(Br)C(Br)C(=O)O` (stereo unspecified) here?
Answer: 43.9 µM

Question: And the TGI (HS 578T breast)?
Answer: > 100 µM

Question: What about the GI50 (OVCAR-3 ovarian) of the same molecule?
Answer: 2.63 µM

Question: What about the TGI (OVCAR-3 ovarian) of the same molecule?
Answer: 6.81 µM

Question: And the GI50 (SNB-19 CNS)?
Answer: 27.9 µM

Question: What about the TGI (SNB-19 CNS) of the same molecule?
Answer: > 68.7 µM

Question: What about the GI50 (HCC-2998 colon) of the same molecule?
Answer: 8.25 µM

Question: And the TGI (HCC-2998 colon)?
Answer: 22.2 µM

Question: And the GI50 (T-47D breast)?
Answer: 3.27 µM

Question: What about the TGI (T-47D breast) of the same molecule?
Answer: 14.3 µM

Question: And the GI50 (SF-539 CNS)?
Answer: 11.5 µM

Question: And the TGI (SF-539 CNS)?
Answer: 25.4 µM

Question: What about the GI50 (UACC-62 melanoma) of the same molecule?
Answer: 2.81 µM

Question: What about the TGI (UACC-62 melanoma) of the same molecule?
Answer: 8.93 µM

Question: What about the GI50 (MDA-MB-435) of the same molecule?
Answer: 4.27 µM

Question: What about the TGI (MDA-MB-435) of the same molecule?
Answer: 20.7 µM

Question: And the GI50 (KM12 colon)?
Answer: 16.3 µM

Question: And the TGI (KM12 colon)?
Answer: 39.2 µM

Question: And the GI50 (HOP-92 NSCLC)?
Answer: 12.8 µM

Question: What about the TGI (HOP-92 NSCLC) of the same molecule?
Answer: 33.1 µM

Question: And the GI50 (BT-549 breast)?
Answer: 3.23 µM

Question: And the TGI (BT-549 breast)?
Answer: 13 µM

Question: What about the GI50 (RPMI-8226 leukemia) of the same molecule?
Answer: 17.7 µM

Question: What about the TGI (RPMI-8226 leukemia) of the same molecule?
Answer: > 91.7 µM

Question: And the GI50 (OVCAR-5 ovarian)?
Answer: 27.9 µM

Question: What about the TGI (OVCAR-5 ovarian) of the same molecule?
Answer: 57 µM

Question: What about the GI50 (ACHN renal) of the same molecule?
Answer: 17.2 µM

Question: And the TGI (ACHN renal)?
Answer: > 80.5 µM

Question: And the GI50 (NCI-H226 lung)?
Answer: 13.7 µM

Question: What about the TGI (NCI-H226 lung) of the same molecule?
Answer: 35.9 µM

Question: What about the GI50 (A498 renal) of the same molecule?
Answer: 27.5 µM

Question: And the TGI (A498 renal)?
Answer: 73.2 µM

Question: What about the GI50 (OVCAR-8 ovarian) of the same molecule?
Answer: 9.01 µM

Question: And the TGI (OVCAR-8 ovarian)?
Answer: > 100 µM

Question: And the GI50 (NCI/ADR-RES ovarian)?
Answer: 3.03 µM

Question: What about the TGI (NCI/ADR-RES ovarian) of the same molecule?
Answer: 9.26 µM

Question: And the GI50 (MDA-MB-231 breast)?
Answer: 9.23 µM

Question: What about the TGI (MDA-MB-231 breast) of the same molecule?
Answer: 26 µM

Question: What about the GI50 (SR leukemia) of the same molecule?
Answer: 3.43 µM

Question: What about the TGI (SR leukemia) of the same molecule?
Answer: > 100 µM

Question: What about the GI50 (HOP-62 NSCLC) of the same molecule?
Answer: 4.79 µM

Question: And the TGI (HOP-62 NSCLC)?
Answer: 21.3 µM

Question: What about the GI50 (UO-31 renal) of the same molecule?
Answer: 19.2 µM

Question: And the TGI (UO-31 renal)?
Answer: 43.6 µM

Question: And the GI50 (HCT-15 colon)?
Answer: 10.2 µM

Question: And the TGI (HCT-15 colon)?
Answer: 32.2 µM

Question: What about the GI50 (U251 CNS) of the same molecule?
Answer: 6.62 µM

Question: And the TGI (U251 CNS)?
Answer: 20.9 µM

Question: And the GI50 (OVCAR-4 ovarian)?
Answer: 6.36 µM

Question: What about the TGI (OVCAR-4 ovarian) of the same molecule?
Answer: 60.6 µM

Question: And the GI50 (RXF 393 renal)?
Answer: 18.8 µM

Question: And the TGI (RXF 393 renal)?
Answer: 40.9 µM

Question: And the GI50 (K-562 leukemia)?
Answer: 1.46 µM

Question: And the TGI (K-562 leukemia)?
Answer: > 100 µM

Question: And the GI50 (PC-3 prostate)?
Answer: 13.4 µM

Question: What about the TGI (PC-3 prostate) of the same molecule?
Answer: > 100 µM

Question: What about the GI50 (CCRF-CEM leukemia) of the same molecule?
Answer: 2.9 µM

Question: And the TGI (CCRF-CEM leukemia)?
Answer: > 100 µM

Question: What about the GI50 (NCI-H522 lung) of the same molecule?
Answer: 1.91 µM

Question: What about the TGI (NCI-H522 lung) of the same molecule?
Answer: 5.45 µM

Question: And the GI50 (A549 NSCLC)?
Answer: > 74.3 µM

Question: And the TGI (A549 NSCLC)?
Answer: > 100 µM

Question: And the GI50 (SF-268 CNS)?
Answer: 4.33 µM

Question: And the TGI (SF-268 CNS)?
Answer: 16.8 µM

Question: And the GI50 (TK-10 renal)?
Answer: 6.59 µM

Question: What about the TGI (TK-10 renal) of the same molecule?
Answer: 28 µM

Question: What about the GI50 (CAKI-1 renal) of the same molecule?
Answer: 16.7 µM

Question: And the TGI (CAKI-1 renal)?
Answer: 49.1 µM

Question: And the GI50 (SK-MEL-5 melanoma)?
Answer: 2.39 µM

Question: And the TGI (SK-MEL-5 melanoma)?
Answer: 7.1 µM

Question: And the GI50 (MOLT-4 leukemia)?
Answer: 6.78 µM

Question: And the TGI (MOLT-4 leukemia)?
Answer: > 100 µM

Question: What about the GI50 (EKVX NSCLC) of the same molecule?
Answer: 21.9 µM

Question: What about the TGI (EKVX NSCLC) of the same molecule?
Answer: > 100 µM

Question: What about the GI50 (COLO 205 colon) of the same molecule?
Answer: 18.1 µM

Question: And the TGI (COLO 205 colon)?
Answer: 34 µM

Question: What about the GI50 (HL-60(TB) leukemia) of the same molecule?
Answer: 5.61 µM

Question: What about the TGI (HL-60(TB) leukemia) of the same molecule?
Answer: > 100 µM

Question: What about the GI50 (SK-OV-3 ovarian) of the same molecule?
Answer: > 100 µM

Question: And the TGI (SK-OV-3 ovarian)?
Answer: > 100 µM

Question: And the GI50 (HCT-116 colon)?
Answer: 3.09 µM

Question: What about the TGI (HCT-116 colon) of the same molecule?
Answer: 9.49 µM

Question: And the GI50 (LOX IMVI melanoma)?
Answer: 1.02 µM

Question: And the TGI (LOX IMVI melanoma)?
Answer: 2.52 µM

Question: What about the GI50 (786-0 renal) of the same molecule?
Answer: 21.7 µM

Question: What about the TGI (786-0 renal) of the same molecule?
Answer: 47.7 µM

Question: What about the GI50 (SN12C renal) of the same molecule?
Answer: 4.02 µM

Question: And the TGI (SN12C renal)?
Answer: 18.4 µM

Question: And the GI50 (NCI-H23 lung)?
Answer: 11.9 µM

Question: What about the TGI (NCI-H23 lung) of the same molecule?
Answer: 47.8 µM

Question: What about the GI50 (NCI-H460 lung) of the same molecule?
Answer: 38 µM

Question: What about the TGI (NCI-H460 lung) of the same molecule?
Answer: > 100 µM

Question: What about the GI50 (M14 melanoma) of the same molecule?
Answer: 14.9 µM

Question: What about the TGI (M14 melanoma) of the same molecule?
Answer: 34.9 µM

Question: What about the GI50 (SW-620 colon) of the same molecule?
Answer: 5 µM

Question: And the TGI (SW-620 colon)?
Answer: > 51.5 µM

Question: And the GI50 (SK-MEL-2 melanoma)?
Answer: 7.54 µM

Question: What about the TGI (SK-MEL-2 melanoma) of the same molecule?
Answer: 26.2 µM

Question: What about the GI50 (UACC-257 melanoma) of the same molecule?
Answer: 11 µM

Question: What about the TGI (UACC-257 melanoma) of the same molecule?
Answer: 40.5 µM

Question: And the GI50 (HT29 colon)?
Answer: 25.6 µM

Question: What about the TGI (HT29 colon) of the same molecule?
Answer: > 68.3 µM

Question: And the GI50 (SK-MEL-28 melanoma)?
Answer: 7.69 µM

Question: And the TGI (SK-MEL-28 melanoma)?
Answer: > 49.2 µM

Question: What about the GI50 (IGROV1 ovarian) of the same molecule?
Answer: 33.2 µM

Question: What about the TGI (IGROV1 ovarian) of the same molecule?
Answer: > 73.5 µM

Question: And the GI50 (MCF7 breast)?
Answer: 3.23 µM

Question: What about the TGI (MCF7 breast) of the same molecule?
Answer: > 47.9 µM

Question: And the GI50 (MALME-3M melanoma)?
Answer: 9.88 µM

Question: And the TGI (MALME-3M melanoma)?
Answer: 28.8 µM

Question: What about the GI50 (DU-145 prostate) of the same molecule?
Answer: 35.7 µM

Question: What about the TGI (DU-145 prostate) of the same molecule?
Answer: > 100 µM

Question: And the GI50 (SNB-75 CNS)?
Answer: 26.6 µM

Question: What about the TGI (SNB-75 CNS) of the same molecule?
Answer: > 60.1 µM

Question: What about the GI50 (SF-295 CNS) of the same molecule?
Answer: 38.9 µM

Question: What about the TGI (SF-295 CNS) of the same molecule?
Answer: > 100 µM
